According to PubChem BioAssay AID2740 (NMMLSC, 2010):
The source made the active and inactive calls.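 The calls were made as follows: active = compounds whose fitted half-maximal concentration for changing the GFP signal is at or below a set limit; inactive = the rest.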

assay: TOR pathway RPL19A-GFP modulators, concentration series – cell-based, S. cerevisiae, flow cytometry, MLPCN hits, dose response (AID 2740);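 also: background is signal of the same compound in parental non-GFP s288c yeast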; details: S. cerevisiae RPL19A-GFP strain, flow cytometry fluorescence, 3 h; at 33 µM (top of the series)

Compound	GFP fluorescence, lower = active (kMESF (background-subtracted))
CCN(CC)c1ccc2cc(-c3nc(-c4ccc(OC)cc4)cs3)c(=O)oc2c1	40 (inactive)
COc1ccc(NC(=O)/C(C#N)=C/c2ncc([N+](=O)[O-])n2C)c(OC)c1	41.5 (inactive)
Cc1cccc(C(=O)NNC(=S)NC(=O)c2ccccc2)c1	48.3 (inactive)
COc1ccc(C(=O)NC(=S)NNC(=O)CCc2ccccc2)cc1	46.5 (inactive)
O=C(COc1c(Br)cc(Br)c2cccnc12)N1CCc2ccccc2C1	45.4 (inactive)
CCOC(=O)CSC1=NC(=O)/C(=C/c2ccc(Br)cc2)S1	38.5 (inactive)
COc1ccccc1OCCCc1c(C)n[nH]c1C	37.6 (inactive)
CCCCNc1c2c3c(cccc3n(C)c1=O)C(=O)c1ccccc1-2	39.9 (inactive)
O=C(OCn1ncc(Br)c(Br)c1=O)c1c(F)cccc1F	37.9 (inactive)
COc1cccc(C(=O)Nc2nnc(-c3ccc(Cl)cc3)o2)c1	35.5 (inactive)
Cc1ccccc1OCCOC(=O)c1ccc(S(=O)(=O)N2CCCC2)cc1	43.3 (inactive)
Cc1ccc(/C=C2\C(=O)NC(=S)N(c3ccc(F)cc3)C2=O)s1	38 (inactive)
Oc1c(Br)cc(Br)cc1C=Nc1ccc2c(c1)OCO2	40 (inactive)
Cc1ccc(NC(=O)CCc2ccccc2)cc1S(=O)(=O)N1CCOCC1	45.9 (inactive)
CC(C)[C@]1(c2ccccc2)ON(c2ccccc2C(F)(F)F)C1=O	36 (inactive)
CS(=O)(=O)c1nc(-c2ccccc2)cc(C(F)(F)F)n1	31.9 (inactive)
Cc1cccc(N2C(=O)C(Cl)=C(Nc3c(C)n(C)n(-c4ccccc4)c3=O)C2=O)c1C	41.7 (inactive)
CC(=O)Oc1oc(-c2ccccc2)nc1C=Nc1ccccc1	39.7 (inactive)
O=C(Oc1ccnc2cc(Cl)ccc12)N1CCOCC1	37.6 (inactive)
O=C(Nc1ccc(N2CCOCC2)cc1)C1CCN(S(=O)(=O)c2ccc3c(c2)OCCO3)CC1	34.9 (inactive)
Nc1ccccc1SC(C[N+](=O)[O-])c1ccccc1 (configuration not stated)	38.1 (inactive)

Compound	GFP fluorescence, lower = active (kMESF (background-subtracted))
O=C(O)c1ccccc1SC1CC(=O)N(c2ccc3c(c2)OCO3)C1=O (configuration not stated)	43.5 (inactive)
O=C(c1ccc([N+](=O)[O-])o1)N1CCN(c2nc3c(F)cc(F)cc3s2)CC1	31.7 (inactive)
O=C(COc1ccccc1)N1CCN(c2ncnc3c2cnn3-c2ccccc2)CC1	37.1 (inactive)
O=C(NC(=S)NNC(=O)c1ccc(Cl)cc1Cl)c1cccnc1	18.7 (inactive)
O=C1c2ccccc2C(=O)C2OC12 (configuration not stated)	29.2 (inactive)
COc1cc(N2C(=O)C=CC2=O)c(OC)cc1Cl	18.8 (inactive)
CCOc1ccc(NC2=C(Cl)C(=O)N(Cc3ccccc3)C2=O)cc1	44.3 (inactive)
CC[C@H](C)/C=C(C)/C=C/C1=CC2=C(Cl)C(=O)[C@@](C)(OC(C)=O)C(=O)C2=CO1	4.51 (inactive)
Cc1ccc(/C=C2\SC(=S)N(Cc3ccccc3)C2=O)o1	39.4 (inactive)
CCN(CC)c1ccc(/C=C2\C(=O)c3ccc(C(=O)O)cc3C2=O)cc1	51.5 (inactive)
COc1ccc(NC2=C(Cl)C(=O)N(CCc3ccccc3)C2=O)cc1	41.6 (inactive)
CC1=C/C(=N\OS(=O)(=O)c2ccccc2)C(C)=CC1=O	17.1 (inactive)
C=C1C(O)[C@@H]2O[C@]3(CC[C@H](/C=C/C(C)[C@@H]4CC(C)=CC5(O[C@H](C[C@@](C)(O)C(=O)O)CCC5O)O4)O3)CC[C@H]2O[C@@H]1C(O)CC(C)[C@H]1OC2(CCCCO2)CCC1C (some centres not stated)	41.3 (inactive)
CCCOc1ccc(C(=O)NNC(=S)NC(=O)c2ccco2)cc1	51 (inactive)
COc1ccccc1[C@]1(C)ON(c2ccccc2C(F)(F)F)C1=O	30.8 (inactive)
COc1ccc([C@@]2(C(C)C)ON(c3ccccc3C(F)(F)F)C2=O)cc1	45.9 (inactive)
CCOc1cc(C=C2C(=O)c3ccccc3C2=O)ccc1OCC(=O)Nc1ccc(C)cc1	43.8 (inactive)
CCSc1nnc(NC(=O)c2ccccn2)s1	50 (inactive)
Cc1ccc(O)c(N=Nc2nccs2)c1	32.1 (inactive)
O=c1c2cc(Br)ccc2nc(-c2ccc([N+](=O)[O-])cc2)n1O	15.6 (inactive)
CC1=C(C)/C(=N\OS(=O)(=O)c2ccc(C)cc2)C=CC1=O	16.9 (inactive)

Compound	GFP fluorescence, lower = active (kMESF (background-subtracted))
O=C(COc1ccccc1)NNC(=S)NC(=O)c1ccccc1	44.4 (inactive)
COc1ccc(CCNC2=C(Cl)C(=O)N(CCc3ccc(OC)c(OC)c3)C2=O)cc1OC	42.6 (inactive)
O=C(Oc1c(Cl)cc(Cl)c2cccnc12)c1ccco1	34.9 (inactive)
CCCCC1OC23CCCCC2C(C#N)(C(=N)O3)C1(C#N)C#N (configuration not stated)	43.5 (inactive)
Cc1ccc(N=Nc2ccc(O)c3ncccc23)cc1	39.8 (inactive)
Cc1ccc(-c2nc(C)sc2CC(=O)Nc2nnc(C)s2)cc1	37.9 (inactive)
NC(=O)COc1ccc(C(=O)/C=C2/C(=O)Nc3ccccc32)cc1	40.3 (inactive)
Cc1cc(O)c(C(=O)/C=C/c2c(F)c(F)c(F)c(F)c2F)c(=O)o1	26.6 (inactive)
O=C(CS(=O)c1ccccc1[N+](=O)[O-])Oc1ccc(Br)cc1 (configuration not stated)	39.1 (inactive)
Cc1cc(C)c(S(=O)(=O)N2CCC(C(=O)NCc3ccc(Cl)cc3Cl)CC2)c(C)c1	31.7 (inactive)
COc1ccccc1N=Nc1ccc(O)c2ncccc12	32.6 (inactive)
COc1ccc(/C=C/C(=O)NC(=S)NNC(=O)c2cnccn2)cc1	49.2 (inactive)
O=C(Nc1nnc(-c2ccc(F)cc2)o1)c1cccc([N+](=O)[O-])c1	43.5 (inactive)
CCOc1ccccc1/C=c1\sc2ncnn2c1=O	30.1 (inactive)
Cc1cc(C2CCCCC2)n(O)c(=O)c1	42.8 (inactive)
Cc1ccc(S(=O)(=O)c2ncccc2[N+](=O)[O-])cc1	47.4 (inactive)
O=[N+]([O-])c1cc(F)c2cccnc2c1O	25.6 (inactive)
Cc1ccc(N2C(=O)C(Cl)=C(Nc3c(C)n(C)n(-c4ccccc4)c3=O)C2=O)cc1	39 (inactive)
O=C1ON=C(c2ccccc2)/C1=C/c1ccco1	28.4 (inactive)
O=C1ON=C(c2ccccc2)/C1=C/c1ccc(-c2ccccc2[N+](=O)[O-])o1	25.3 (inactive)
N/C(=N\OC(=O)c1cc(Br)ccc1Cl)c1ccccn1	39.8 (inactive)

Compound	GFP fluorescence, lower = active (kMESF (background-subtracted))
COc1cccc(/C=C2\C(=O)N(c3cccc(C)c3)C(=O)c3ccccc32)c1	42.4 (inactive)
O=C(NOC(=O)c1ccccc1)c1ccccc1	38.1 (inactive)
O=C1N(c2ccccc2C(F)(F)F)O[C@@]1(c1ccccc1)C1CCCC1	46 (inactive)
COc1ccc(OCC(=O)NNC(=S)NC(=O)C2CCCCC2)cc1	38 (inactive)
CCCN1CCc2c(sc(NC(=S)NC(=O)c3ccccc3)c2C#N)C1	47.6 (inactive)
COc1ccc(C2(C)ON(c3ccccc3C(F)(F)F)C2=O)cc1 (configuration not stated)	34.3 (inactive)
Cc1[nH]n(-c2ncc(-c3ccccc3)s2)c(=O)c1C(c1ccc(Cl)cc1)C(C#N)C#N (configuration not stated)	42 (inactive)
C[C@@]12C(=O)OC(=O)[C@]1(C)C1CCC2O1	25.9 (inactive)
COc1cccc(/C=C/C(=O)c2c(O)cc(C)oc2=O)c1O	40.4 (inactive)
Oc1ccc(N=Nc2ccccc2)o1	42.3 (inactive)
Cc1ccc(C(=O)NNC(=S)NC(=O)c2ccco2)cc1	49.1 (inactive)
COC(=O)CCCC1=CC2=CC(=O)C(C)(OC(=O)CCc3ccccc3)C(=O)C2=CO1 (configuration not stated)	42.8 (inactive)
Cc1c(Br)c(=O)oc2c(Br)c(O)c(O)cc12	38.1 (inactive)
Cc1ccc(S(=O)(=O)/N=C(\Sc2ccccc2)c2ccccc2)cc1	42 (inactive)
Cc1sc(/C=C2\C(=O)ON=C2c2ccccc2)cc1Br	45 (inactive)
CCOC(=O)CSC1=NC(=O)/C(=C\c2ccc(Cl)cc2)S1	31.9 (inactive)
CCOC(=O)CCS(=O)(=O)c1nc(-c2ccccc2)cc(C(F)(F)F)n1	33.2 (inactive)
CCCOc1ccc(C(=O)NNC(=S)NC(=O)CC)cc1	50.5 (inactive)
CC1=NOC(=O)/C1=C\c1ccc(-c2cc(Cl)ccc2Cl)o1	39 (inactive)
